From patent EP4782431A1 (Suzhou Merna Therapeutics Co. Ltd, priority 2023, dated 2025) come the findings set out here.

The test system of the test is keratinocyte differentiation markers KRT1, KRT10, Loricrin, and Involucrin. As to the kind of experiment: inhibition of HBEGF-induced differentiation of HaCaT keratinocytes (RT-PCR). In kind it is cell-based. To be noted: with 2.5 ng/mL recombinant human HBEGF protein, 24 hours. The procedure:
Human HaCaT keratinocytes were cultured in DMEM culture medium containing 10% fetal bovine serum, 100 U/mL penicillin, and 100 µg/mL streptomycin. The cells were seeded into a 96-well plate at a density of […] and placed in an incubator containing 5% carbon dioxide for culture at 37°C for 24 hours. An equal volume of DMSO was added into control well 1, a 2.5 ng/mL recombinant human HBEGF protein (Abcam, ab205523) was added into control well 2, and a 2.5 ng/mL recombinant human HBEGF protein and corresponding concentrations of test compounds were added into sample wells. The cells were continuously cultured for 24 hours, washed with PBS, and then collected by high-speed centrifugation. Total RNA was extracted using Trizol reagent (Sigma Aldrich). 1 µg of RNA was reverse-transcribed into cDNA using a cDNA reverse transcription kit (Transgene Biotech, AT311-03). 1.25 µL of a primer (with a primer sequence shown in Table 2), 10 µL of an iTag Universal SYBR Green supermix (Bio-Rad, 172-5125), and an appropriate amount of DEPC ultrapure water were added to formulate 20 µL of a reaction solution to perform an RT-PCR reaction. Upon completion of the reaction, the reaction solution was subjected to agarose gel electrophoresis to determine the mRNA expression level of keratinocyte differentiation markers KRT1, KRT10, Loricrin, and Involucrin. […]

With `NC(=O)[C@H]1CCCc2c1[nH]c1ccc(Cl)cc21` [Compound of formula (I), (S)-6-chloro-2,3,4,9-tetrahydro-1H-carbazole-carboxamide], the “mRNA expression level of the HaCaT differentiation markers KRT1, KRT10, Loricrin, and Involucrin” value was “significantly inhibited”.
